Measured values from US10172876B2, “Use of ginsenoside M1 for treating IgA nephropathy” (priority 2014, dated 2019).

Tests used:
[1] = system: mice model of IgA nephropathy (IgAN); assay: Urine protein and renal function in IgAN mice; assay type: in vivo
Procedure: (§1) B-cell-deficient mice were obtained from the Academia Sinica (Professor John T. Kung, Institute of Molecular Biology, Taipei, Taiwan) and maintained at the animal center of the National Defense Medical Center (Taipei, Taiwan). IgAN was induced by daily injection of purified IgA anti-phosphorylcholine antibodies and pneumococcal C-polysaccharide antigen (PnC). All animal experiments were performed with the approval of the Institutional Animal Care and Use Committee of the National Defense Medical Center and complied with the NIH Guide for the Care and Use of Laboratory Animals.
(§2) Ginsenoside M1, 20-O-β-D-glucopyranosyl-20(S)-protopariaxadiol (named LCHK168 below), was prepared by methods known in the art, such as those described in Taiwan Patent Application No. 094116005 (1280982) and U.S. Pat. No. 7,932,057. The mice were treated daily with 60 mg/kg LCHK168 or with the vehicle, by oral gavage throughout the experiment, the first dose being given 2 day before disease induction.
Body weight was measured weekly. Urine samples were collected in metabolic cages weekly and urine protein was determined. Serum samples were collected on days 14 and 28 to measure serum levels of blood urea nitrogen (BUN) and creatinine (Cr). For renal histopathology, the tissues were fixed in 10% buffered formalin and embedded in paraffin, and then sections (3 μm) were prepared and stained with hematoxylin and eosin (H&E). The percentage of glomeruli showing proliferation, neutrophil infiltration, sclerosis, or periglomerular inflammation was determined by counting 50 randomly sampled glomeruli by light microscopy at a magnification of 400×.

[2] = system: memory CD4+ T cells; assay: Flow cytometry of splenocytes for memory CD4+ T cells in IgAN mice; assay type: in vivo; settings: 60 mg/kg daily oral gavage, vs disease control (FIG. 11)
Procedure: as §1
(§3) Ginsenoside M1, 20-O-β-D-glucopyranosyl-20(S)-protopariaxadiol (named LCHK168 below), was prepared by methods known in the art, such as those described in Taiwan Patent Application No. 094116005 (1280982) and U.S. Pat. No. 7,932,057. […]
Splenocytes from the mice were treated with Tris-buffered ammonium chloride to eliminate erythrocytes, washed and resuspended in RPMI1640 medium supplemented with 10% fetal calf serum, Hepes buffer, L-glutamine, and penicillin/streptomycin. The cells were triple-stained for activated T cell subtypes using FITC-conjugatedanti-mouse CD44, phycoerythrin-conjugated anti-mouse CD62 antibodies, and allophycocyanin-conjugated anti-mouse CD4 and analyzed using a FACSCalibur.

[3] = system: reactive oxygen species (ROS); assay: Measurement of reactive oxygen species (ROS) in renal tissue of IgAN mice; assay type: in vivo; settings: vs disease control (FIG. 10)
Procedure: as §1, §3
To measure ROS levels in renal tissue, the samples were incubated at room temperature with Krebs-Hepes buffer containing 1.25 mM lucigenin (Sigma, St. Louis, Mo., USA) as substrate, and luminescence counts were measured in duplicate at 15-s intervals on a multilabel microplate reader (Hidex). ROS activity was expressed as relative luminescence units (RLU) per 15 minutes per milligram of organ dry weight (i.e., RLU/15 min/mg) or as RLU/15 min/ml.

[4] = system: NLRP3; assay: Western blot of NLRP3 in IgA-IC stimulated DCs; assay type: cell-based, mouse; settings: β-actin loading control (FIG. 14)
Procedure: (§4) Dendritic cells (DCs) maturation was determined by the upregulation of costimulatory molecule expression. Cells were treated with IgA-IC, LCHK168 (1, 2 μM) and stained with mAbs specific for mouse CD40, CD80, and CD86 and then analyzed by flow cytometry.
Each protein sample was run on a 8% SDS-PAGE gel and the proteins were electro blotted on to a polyvinylidene difluoride membrane, which was then incubated for 1 h at room temperature in blocking buffer (Tris-buffered saline containing 5% skim milk) and then overnight at 4° C. with rabbit antibodies against NLRP3 or β-actin. After being washed, the membrane was incubated for 1 h at room temperature with HRP-conjugated goat anti-rabbit IgG antibody in the same buffer; then bound antibody was detected using UVP Biospectrum.

[5] = system: TLR2; assay: Real-time RT-PCR of renal TLR2 mRNA in IgAN mice; assay type: in vivo; settings: 60 mg/kg daily oral gavage
Procedure: as §1, §2
Renal cortex RNA was extracted using TRIzol reagent according to the manufacturer's instructions, and RT-PCR was used to measure TLR2 gene expression. […] Real-time quantification was performed using a Applied Biosystems according to the manufacturer's instructions. […]

[6] = system: mice model of IgA nephropathy (IgAN); assay: IHC of renal tissue for infiltrating leukocytes and Collagen IV in IgAN mice; assay type: in vivo; settings: day 28, 60 mg/kg daily oral gavage
Procedure: as §1, §2
For IHC, formalin-fixed and paraffin-embedded tissue sections or frozen sections were incubated overnight at 4. C with anti-bodies against CD3, F4/80, CD4, CD8, CD11c, Collagen IV, diluted in DAKO antibody dilution buffer (DAKO), and then for 1 h at room temperature with horseradish peroxidase (HRP)-conjugated second antibodies (DAKO) in the same buffer; in the case of the HRP-conjugated antibodies, DAB (DAKO) was also added. Hematoxylin was used to counterstain nuclei. Positive cells was counted at a magnification of 400× in 20 consecutive glomeruli or in 20 randomly selected fields of the tubule interstitial compartment in the cortical area by Pax-It quantitative image analysis software.

[7] = system: mice model of IgA nephropathy (IgAN); assay: Renal histopathology (H&E) in IgAN mice; assay type: in vivo; settings: day 28, 60 mg/kg daily oral gavage, vs disease control (FIG. 3)
Procedure: as §1, §2
Body weight was measured weekly. Urine samples were collected in metabolic cages weekly and urine protein was determined. […] The percentage of glomeruli showing proliferation, neutrophil infiltration, sclerosis, or periglomerular inflammation was determined by counting 50 randomly sampled glomeruli by light microscopy at a magnification of 400×.

[8] = system: Dendritic cells (DCs); assay: IgA-IC stimulated dendritic cell maturation by flow cytometry; assay type: cell-based, mouse; settings: LCHK168 1, 2 μM, flow cytometry (FIG. 13)
Procedure: as §4

[9] = day 14, 60 mg/kg daily oral gavage, between disease control, IgAN+LCHK168 and normal control

## CC(C)=CCC[C@](C)(O[C@@H]1OC(CO)[C@@H](O)[C@@H](O)C1O)[C@H]1CC[C@]2(C)C1[C@H](O)CC1[C@@]3(C)CC[C@H](O)C(C)(C)C3CC[C@]12C (stereo partly drawn) [LCHK168, 20-O-β-D-glucopyranosyl-20(S)-protopanaxadiol]
[1]; IgAN mice, 60 mg/kg daily oral gavage, day 14 to day 28, vs vehicle-treated disease control (FIG. 1)
  urine protein levels (ratio of urine protein to creatinine): markedly inhibited
[1]; IgAN mice, 60 mg/kg daily oral gavage, vs normal untreated controls (FIG. 1)
  proteinuria compared to normal untreated controls: mild proteinuria
[1]; [9]
  serum levels of BUN: no significant difference
  serum levels of Cr: no significant difference
[1]; day 28, 60 mg/kg daily oral gavage, vs disease control (FIG. 2A)
  serum levels of BUN: much better renal function
[1]; day 28, 60 mg/kg daily oral gavage, vs disease control (FIG. 2B)
  serum levels of Cr: much better renal function
[2]
  memory CD4+ T cells in splenocytes: significant reduction
[3]; day 14, 60 mg/kg daily oral gavage
  increase in renal tissues ROS levels: greatly inhibited
[3]; day 28, 60 mg/kg daily oral gavage
  increase in ROS levels in renal tissues: substantially inhibited
[4]
  NLRP3 protein expression in DCs: significantly decreased
[5]; 14 days, difference vs IgAN control mice (FIG. 12)
  TLR2 mRNA levels in the kidney (relative to GAPDH): not statistically significant
[5]; 28 days, vs IgAN control mice (FIG. 12)
  TLR2 mRNA levels in the kidney (relative to GAPDH): significantly lower
[6]; vs disease control (FIG. 4)
  renal infiltration of CD3+ T cells: significantly decreased
[6]; vs disease control (FIG. 5)
  renal infiltration of F4/80+ monocytes/macrophages: significantly decreased
[6]; vs disease control (FIG. 6)
  renal infiltration of CD4+ T cells: significantly decreased
[6]; vs disease control (FIG. 7)
  renal infiltration of CD8+ T cells: significantly decreased
[6]; vs disease control (FIG. 8)
  renal infiltration of CD11c+ dendritic cells: significantly decreased
[6]; vs disease control (FIG. 9)
  renal fibrosis (Collagen IV staining): significantly decreased
[7]
  renal lesion (proliferation, crescents, sclerosis, neutrophil infiltration, periglomerular leukocyte infiltration, tubular atrophy): significantly inhibited
[8]
  expression level of CD40 in DCs: significantly lowered
  expression level of CD80 in DCs: significantly lowered
  expression level of CD86 in DCs: significantly lowered
